Square brackets hold non-standard residues; d marks the D form. Ends that are not written are not given here. Nle = CCCC[C@H](N)C(=O)O
Experiments:
[1] = assay type: in vivo, mice
Description: In vivo Assessment of Docetaxel and TH1902 Anti-Tumor Efficacy. Tumor xenografts were established by subcutaneous inoculation of 10^3 hBCSC cells, hOvCSC and hPCSC resuspended in […] of HBSS containing 50% Matrigel™, into the right flank of NCG triple immunodeficient female mice (Charles River, Saint-Constant QC) under light isoflurane anesthesia. Three days following implantation of either hBCSC or hOvCSCS, mice commenced receiving weekly treatment by intravenous bolus injections of vehicle (10% polysorbate-80, 5% dextrose, 0.04% formic acid pH 4.3), docetaxel (15 mg/kg (the MTD for this agent) or 3.75 mg/kg (¼ MTD for this agent), dissolved in 5% dextrose, 3.3% ethanol, 1.7% Tween™-80) or TH1902 (35 mg/kg or 8.75 mg/kg) dissolved in vehicle. Note that the two TH1902 and docetaxel concentrations contain equimolar amounts of docetaxel due to the two docetaxel moieties per TH1902 molecule. Tumor growth was measured using two-dimensional measurements taken with an electronic caliper, and tumor volume was calculated according to the following formula: tumor volume (mm^3)=π/6×length×width^2. Animal weights were measured three times per week with a precision of 10 mg.

hBCSCs [2] = experiment: hBCSC apoptosis by flow cytometry (annexin V-FITC/PI); assay type: cell-based, human; conditions: 2 h treatment, 4 μM docetaxel or 2 μM TH1902; 22 h, 48 h, 72 h post-treatment
Protocol: Assessment of hBCSC Apoptosis by Flow Cytometry. AnnexinV/PI staining was performed using an Apoptosis Detection Kit (BD Pharmingen, Mississauga ON) according to the manufacturer's instructions. Briefly, hBCSCs (1.3×10^5 cells/well) were seeded for 24 hours in 12-well plates. Cells were treated in serum-deprived medium for 2 hours with vehicle (DMSO), 4 μM Docetaxel or 2 μM TH1902. Cells were washed with complete medium and incubated in fresh complete medium for 22, 48, and 72 hours. Cells were finally harvested, resuspended in a staining solution of 100 μl of 1×binding buffer containing 5 μL of annexinV-FITC and 5 μL of PI. Cells were incubated for 15 minutes at room temperature in the dark before analysis by flow cytometry. The extent of apoptosis was measured, then analyzed using BD Accuri™ C6 software.

hBCSCs [3] = experiment: Confocal microscopy of hBCSCs (DAPI, anti-α-tubulin); assay type: cell-based, human; conditions: 4 μM docetaxel or 2 μM TH1902, 48 hours post-treatment; for appearance of fragmented nuclei: DAPI
Protocol: Effects of Docetaxel and TH1902 on Tubulin Polymerization. hBCSCs were grown to 80% confluence on pre-coated 18 mm microscope cover slips (Celprogen, #E36102-29-CS18), rinsed with PBS and exposed to serum-free culture medium containing vehicle (DMSO), 4 μM docetaxel or 2 μM TH1902 at 37° C. Following incubation for 2 hours the cells were rinsed with complete culture medium and incubated in fresh complete medium for 48 hours. Cells were then washed with PHEM buffer (60 mM Pipes, 25 mM HEPES, 10 mM EGTA and 2 mM MgCl2, pH 6.9) and fixed for 15 minutes with 4% paraformaldehyde, then permeabilized with 1% Triton™ X-100 in PHEM buffer for 5 minutes and washed again with PHEM buffer. The cells were blocked in PBS (2.6 mM KCl, 1.4 mM KH2PO4, 136.9 mM NaCl and 6.5 mM Na2HPO4·7H2O; pH 7.2) containing 10% normal goat serum and 0.05% Triton™ and then incubated for 1 hour with 1:2000 anti-α-Tubulin primary monoclonal antibody (clone B-5-1-2, Sigma-Aldrich; #T5168) diluted in washing buffer (PBS containing 5% normal goat serum and 0.025% Triton). Cells were washed with washing buffer and incubated for 1 hour with Alexa Fluor™ 488-conjugated goat anti-mouse secondary antibody (1:1000; Invitrogen; #A-11001), washed with diluted blocking buffer, stained with DAPI ([…] in PBS, Invitrogen; #D1306) for 3 minutes, washed again in washing blocking buffer and mounted onto slides using Prolong™ Gold antifade reagent (Invitrogen, P36934). Cell images were finally digitalized by confocal microscopy (Nikon A1) and analyzed using NIH ImageJ™ Version 1.4.21 software. The excitation and emission wavelengths used for Alexa Fluor™ 488 were 488 nm and 525 nm, respectively; the excitation and emission wavelengths used for DAPI were 404 nm and 450 nm, respectively.

ovarian hOCSC xenografts = experiment: hOCSC xenografts treated with single agents or combined with carboplatin; assay type: in vivo, mice; conditions: for inhibition of tumor growth, single agent: docetaxel 10 mg/kg, TH1902 23 mg/kg, paclitaxel 10 mg/kg, carboplatin 40 mg/kg, day 18
Protocol: Mice bearing ovarian hOCSC xenografts were treated with vehicle, docetaxel, paclitaxel, TH1902 or carboplatin, and other groups of mice were administered carboplatin in combination with either docetaxel, paclitaxel or TH1902. To minimize the risk of side effects resulting from combining treatments, the dosages used for each drug were reduced to the following: docetaxel 10 mg/kg; TH1902 23 mg/kg (equivalent to the docetaxel dosage); paclitaxel 10 mg/kg; carboplatin 40 mg/kg (unchanged).

MDA-MB-231/luc cells = experiment: Cell cycle analysis (G2/M) of MDA-MB-231/luc cells; assay type: cell-based, human; conditions: MDA-MB-231 cells
Protocol: Cell Cycle Analysis Following Treatment of hBCSC by Test Articles. hBCSCs (2.8×10^5 cells/well) and MDA-MB-231/luc cells (2.3×10^5 cells/well) were seeded in 6-well plates one day prior to treatment. To test the effects of Docetaxel and TH1902 on cell cycle phases, hBCSCs and MDA-MB-231/luc cells were treated for 2 hours in serum-free media with vehicle (DMSO), 4 μM docetaxel or 2 μM TH1902 (equimolar of docetaxel), rinsed with complete media and incubated in fresh complete media for 22 and 48 hours. For the experiments with the P-gp inhibitors, hBCSCs were first pre-treated for 30 minutes in serum-free media with vehicle (DMSO), or 10 μM cyclosporine A or PSC-833 (P-gp inhibitors). Next, cells were treated for 2 hours with 4 μM docetaxel or 2 μM TH1902 in the continued presence or absence of the P-gp inhibitors before being rinsed and incubated in fresh complete media in the continued presence or absence of the P-gp inhibitors. Cells were then incubated for 22 and 48 hours. In both assays, following the incubation, cells were detached with trypsin, fixed with ice-cold 70% EtOH and kept overnight at 4° C. Cells were washed once with PBS, after which they were stained for 30 minutes at room temperature with FxCycle™ PI/RNase Staining Solution (Thermo Scientific, Waltham, MA; #F10797). Cells were finally subjected to cell cycle analysis using a BD Accuri™ C6 flow cytometer.

## CC(=O)O[C@@]12CO[C@@H]1C[C@H](O)[C@@]1(C)C(=O)[C@H](O)C3=C(C)[C@@H](OC(=O)[C@H](O)[C@@H](NC(=O)OC(C)(C)C)c4ccccc4)C[C@@](O)([C@@H](OC(=O)c4ccccc4)[C@H]21)C3(C)C [docetaxel, reference compound]
[1]; mouse, in vivo
  weight loss: 5-10%
hBCSCs [2]
  total apoptosis: indistinguishable from that seen in control cells
hBCSCs [3]
  cell morphology change versus vehicle-treated cells: visible morphology change
  enlargement of cells and re-organization of the microtubules (tubulin labelling): present in some
  appearance of fragmented nuclei: not seen
Ovarian hOCSC xenografts
  inhibition of tumor growth, single agent: clearly inferior to that of TH1902
MDA-MB-231/luc cells
  G2/M cell cycle arrest at 22 h: not

## Acetyl-GVRAK(docetaxel)AGVRN(Nle)FK(docetaxel)SESY (Ac-GVRAK(docetaxel)AGVRN[Nle]FK(docetaxel)SESY) [TH1902]
[1]; FIGS. 8C, 9C and 10C
  effect on animals' weight: no or minimal effect
hBCSCs [2]
  total apoptosis: large increase in apoptosis
hBCSCs [3]
  cell morphology change versus vehicle-treated cells: visible morphology change
  enlargement of cells and re-organization of the microtubules (tubulin labelling): more evident
  appearance of fragmented nuclei: fragmented nuclei in many of the cells
Ovarian hOCSC xenografts
  inhibition of tumor growth, single agent: much greater than that of either taxanes
Ovarian hOCSC xenografts; plus carboplatin 40 mg/kg intraperitoneal, vs the agent alone
  inhibition of tumor growth, combined with carboplatin: slightly increased
MDA-MB-231/luc cells
  G2/M cell cycle arrest at 22 h: some G2/M cell cycle arrest being detected at 22 h

From US20240156971A1, “METHODS AND SORTILIN BINDING CONJUGATE COMPOUNDS FOR TARGETING CANCER STEM CELLS” (TRANSFERT PLUS, SOCIÉTÉ EN COMMANDITE, priority 2021, published 2024)
